# From ChEMBL document CHEMBL3745645, “Synthesis, in vitro antitumor activity, dihydrofolate reductase inhibition, DNA intercalation and structure-activity relationship studies of 1,3,5-triazine analogues” (Bioorg Med Chem Lett, 2016)
# pIC50: −log10 of the molar value. Active and inactive are the calls of the source. No cut-off for these calls is given here.
# What was measured:
# [1] = Cytotoxicity against human MOLT4 cells at 10 uM after 48 hrs by SRB assay; format: functional; details: MOLT-4, 48 h, read-out: GI
# [2] = Cytotoxicity against human SW620 cells at 10 uM after 48 hrs by SRB assay; format: functional; details: SW-620, 48 h, read-out: GI
# [3] = system: 786-0; test: Cytotoxicity against human 786-0 cells at 10 uM after 48 hrs by SRB assay; format: functional
# [4] = system: 786-0; test: Cytotoxicity against human 786-0 cells after 48 hrs by SRB assay; format: functional; details: 786-0, 48 h, pooled result: one value given for 8 cell lines, strains, targets or settings
# [5] = Cytotoxicity against human PC3 cells after 48 hrs by SRB assay; format: functional; details: PC-3, 48 h; for GI50 / TGI: pooled result: one value given for 2 cell lines, strains, targets or settings
# [6] = system: MDA-MB-468; test: Cytotoxicity against human MDA-MB-468 cells at 10 uM after 48 hrs by SRB assay; format: functional
# [7] = Cytotoxicity against human HOP62 cells at 10 uM after 48 hrs by SRB assay; format: functional; details: HOP-62, 48 h, read-out: GI
# [8] = Cytotoxicity against human SF268 cells at 10 uM after 48 hrs by SRB assay; format: functional; details: SF-268, 48 h, read-out: GI
# [9] = system: MDA-MB-435; test: Cytotoxicity against human MDA-MB-435 cells at 10 uM after 48 hrs by SRB assay; format: functional; details: MDA-MB-435, 48 h, read-out: GI
# [10] = system: Calf thymus DNA; test: Binding affinity to calf thymus DNA by UV-vis spectrometric analysis; format: nucleic-acid assay; details: Bos taurus
# [11] = Cytotoxicity against human Caki1 cells at 10 uM after 48 hrs by SRB assay; format: functional; details: CAKI-1, 48 h, read-out: GI
# [12] = system: HT-29; test: Cytotoxicity against human HT-29 cells at 10 uM after 48 hrs by SRB assay; format: functional
# [13] = system: SR; test: Cytotoxicity against human SR cells at 10 uM after 48 hrs by SRB assay; format: functional
# [14] = biological target: T1, Dihydrofolate reductase (Homo sapiens, UniProt P00374); test: Inhibition of human recombinant DHFR expressed in Escherichia coli by spectrophotometric analysis
# T1 sequence (P00374 whole entry): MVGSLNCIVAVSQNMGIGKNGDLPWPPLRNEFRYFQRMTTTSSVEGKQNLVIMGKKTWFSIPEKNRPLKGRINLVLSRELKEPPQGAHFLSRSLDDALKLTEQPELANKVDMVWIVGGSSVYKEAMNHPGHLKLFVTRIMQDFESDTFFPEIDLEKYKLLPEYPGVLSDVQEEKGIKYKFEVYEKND
# [15] = Cytotoxicity against human SF268 cells after 48 hrs by SRB assay; format: functional; details: SF-268, 48 h, pooled result: one value given for 6 cell lines, strains, targets or settings
# [16] = Cytotoxicity against human OVCAR8 cells at 10 uM after 48 hrs by SRB assay; format: functional; details: OVCAR-8, 48 h, read-out: GI
# [17] = Cytotoxicity against human SNB19 cells at 10 uM after 48 hrs by SRB assay; format: functional; details: SNB-19, 48 h, read-out: GI
# [18] = Cytotoxicity against human SKOV3 cells at 10 uM after 48 hrs by SRB assay; format: functional; details: SK-OV-3, 48 h, read-out: GI
# [19] = system: A498; test: Cytotoxicity against human A498 cells at 10 uM after 48 hrs by SRB assay; format: functional; details: A498, 48 h, read-out: GI
# [20] = system: M14; test: Cytotoxicity against human M14 cells at 10 uM after 48 hrs by SRB assay; format: functional
# [21] = system: SK-MEL-28; test: Cytotoxicity against human SK-MEL-28 cells at 10 uM after 48 hrs by SRB assay; format: functional
# [22] = Cytotoxicity against human COLO205 cells after 48 hrs by SRB assay; format: functional; details: COLO 205, 48 h, pooled result: one value given for 7 cell lines, strains, targets or settings
# [23] = Cytotoxicity against human RPMI8226 cells after 48 hrs by SRB assay; format: functional; details: RPMI-8226, 48 h, read-out: LC50 (the source's name)
# [24] = system: Calf thymus DNA; test: Binding affinity to calf thymus DNA by fluorescence spectrophotometric analysis; format: nucleic-acid assay; details: Bos taurus
# [25] = Cytotoxicity against human LOXIMVI cells after 48 hrs by SRB assay; format: functional; details: LOX IMVI, pooled result: one value given for 9 cell lines, strains, targets or settings
# [26] = Cytotoxicity against human DU145 cells after 48 hrs by SRB assay; format: functional; details: DU-145, 48 h, read-out: LC50 (the source's name)
# [27] = system: A549; test: Cytotoxicity against human A549 cells after 48 hrs by SRB assay; format: functional; details: A549, 48 h, pooled result: one value given for 8 cell lines, strains, targets or settings
# [28] = system: T47D; test: Cytotoxicity against human T47D cells at 10 uM after 48 hrs by SRB assay; format: functional
# [29] = system: K562; test: Cytotoxicity against human K562 cells after 48 hrs by SRB assay; format: functional; details: K562, 48 h
# [30] = system: SN12C; test: Cytotoxicity against human SN12C cells at 10 uM after 48 hrs by SRB assay; format: functional; details: read-out: GI
# [31] = Cytotoxicity against human OVCAR5 cells at 10 uM after 48 hrs by SRB assay; format: functional; details: OVCAR-5, 48 h, read-out: GI
# [32] = system: ACHN; test: Cytotoxicity against human ACHN cells at 10 uM after 48 hrs by SRB assay; format: functional; details: read-out: GI
# [33] = Cytotoxicity against human LOXIMVI cells at 10 uM after 48 hrs by SRB assay; format: functional; details: LOX IMVI, read-out: GI
# [34] = Cytotoxicity against human RXF393 cells at 10 uM after 48 hrs by SRB assay; format: functional; details: RXF 393, 48 h, read-out: GI
# [35] = Cytotoxicity against human UO31 cells at 10 uM after 48 hrs by SRB assay; format: functional; details: UO-31, 48 h, read-out: GI
# [36] = Cytotoxicity against human HCT116 cells at 10 uM after 48 hrs by SRB assay; format: functional; details: HCT-116, 48 h, read-out: GI
# [37] = Cytotoxicity against human SF539 cells at 10 uM after 48 hrs by SRB assay; format: functional; details: SF-539, 48 h, read-out: GI
# [38] = Cytotoxicity against human Hs 578T cells at 10 uM after 48 hrs by SRB assay; format: functional; details: read-out: GI
# [39] = Cytotoxicity against human COLO205 cells at 10 uM after 48 hrs by SRB assay; format: functional; details: COLO 205, 48 h, read-out: GI
smiles,measurement,setting,value
Cc1nc2cc(Nc3nc(Nc4ccc(F)cc4)nc(N4CCN(C)CC4)n3)ccc2n1Cc1ccccc1,inhibition of growth at 10 µM,[1],98.9%
same,inhibition of growth at 10 µM,[2],84.4%
same,growth inhibition (GI),[3],Active
same,GI50,[4],1.77 µM
same,LC50 (concentration killing 50% of cells),[4],9.66 µM
same,TGI,[4],3.81 µM
same,LC50,[5],20.5 µM
same,GI50,[5],1.89 µM
same,TGI,[5],4.38 µM
same,growth inhibition (GI),[6],Active
same,inhibition of growth at 10 µM,[7],41.8%
same,inhibition of growth at 10 µM,[8],85.4%
same,inhibition of growth at 10 µM,[9],99.8%
same,Ka,[10],2.92 ×10⁴ /M
same,inhibition of growth at 10 µM,[11],81.4%
same,growth inhibition (GI),[12],Active
same,growth inhibition (GI),[13],Active
same,pIC50,[14],6.51
same,GI50,[15],1.77 µM
same,LC50 (concentration killing 50% of cells),[15],10.8 µM
same,TGI,[15],3.94 µM
same,inhibition of growth at 10 µM,[16],99.4%
same,inhibition of growth at 10 µM,[17],55.8%
same,inhibition of growth at 10 µM,[18],31.3%
same,inhibition of growth at 10 µM,[19],70.8%
same,growth inhibition (GI),[20],Active
same,growth inhibition (GI),[21],Active
same,GI50,[22],1.66 µM
same,LC50,[22],7.15 µM
same,TGI,[22],3.44 µM
same,CC50,[23],8.47 µM
same,Ka,[24],3.36 ×10⁴ /M
same,GI50,[25],1.81 µM
same,LC50,[25],6.27 µM
same,TGI,[25],3.37 µM
same,CC50,[26],20.5 µM
same,GI50,[27],1.84 µM
same,LC50,[27],7.52 µM
same,TGI,[27],3.86 µM
same,growth inhibition (GI),[28],Active
same,LC50,[29],8.47 µM
same,inhibition of growth at 10 µM,[30],65.1%
same,inhibition of growth at 10 µM,[31],57.1%
same,inhibition of growth at 10 µM,[32],90.3%
Cc1nc2cc(Nc3nc(Nc4ccc(F)cc4)nc(-c4cccs4)n3)ccc2n1Cc1ccccc1,inhibition of growth at 10 µM,[1],76.5%
same,inhibition of growth at 10 µM,[2],31.9%
same,inhibition of growth at 10 µM,[33],35.1%
same,inhibition of growth at 10 µM,"[3]; 786-0, 48 h, read-out: GI",62.5%
same,GI50,[4],4.54 µM
same,LC50 (concentration killing 50% of cells),[4],> 100 µM
same,TGI,[4],43.5 µM
same,LC50,[5],> 100 µM
same,GI50,[5],5.2 µM
same,TGI,[5],52.2 µM
same,inhibition of growth at 10 µM,"[6]; MDA-MB-468, 48 h, read-out: GI",66.8%
same,inhibition of growth at 10 µM,[7],7.68%
same,inhibition of growth at 10 µM,[8],36.3%
same,inhibition of growth at 10 µM,[9],56.2%
same,inhibition of growth at 10 µM,[34],74.1%
same,Ka,[10],3.19 ×10⁴ /M
same,inhibition of growth at 10 µM,[11],29.8%
same,inhibition of growth at 10 µM,"[12]; HT-29, 48 h, read-out: GI",79.5%
same,inhibition of growth at 10 µM,[35],63.5%
same,inhibition of growth at 10 µM,[13]; read-out: GI,82%
same,inhibition of growth at 10 µM,[36],75.8%
same,pIC50,[14],6.14
same,inhibition of growth at 10 µM,[37],40.1%
same,GI50,[15],4.66 µM
same,LC50 (concentration killing 50% of cells),[15],43 µM
same,TGI,[15],14.4 µM
same,inhibition of growth at 10 µM,[38],49.7%
same,inhibition of growth at 10 µM,[16],63%
same,inhibition of growth at 10 µM,[17],33.3%
same,inhibition of growth at 10 µM,[18],4.89%
same,inhibition of growth at 10 µM,[19],44%
same,inhibition of growth at 10 µM,"[20]; M14, 48 h, read-out: GI",46.9%
same,inhibition of growth at 10 µM,"[21]; SK-MEL-28, 48 h, read-out: GI",25.7%
same,GI50,[22],3.23 µM
same,LC50,[22],25.3 µM
same,TGI,[22],17 µM
same,CC50,[23],> 100 µM
same,Ka,[24],4.21 ×10⁴ /M
same,GI50,[25],4.72 µM
same,LC50,[25],39 µM
same,TGI,[25],19.7 µM
same,CC50,[26],> 100 µM
same,GI50,[27],7.62 µM
same,LC50,[27],55.4 µM
same,TGI,[27],33.1 µM
same,inhibition of growth at 10 µM,[28]; read-out: GI,76.7%
same,LC50,[29],> 100 µM
same,inhibition of growth at 10 µM,[30],29.7%
same,inhibition of growth at 10 µM,[31],7.98%
same,inhibition of growth at 10 µM,[39],43.2%
same,inhibition of growth at 10 µM,[32],54.4%
